Numbers after ± are expanded uncertainties.
Conditions: Liquid, Ebulliometric method (Recirculating still)

C1CCCCC1 [cyclohexane]
Conditions	vapor or sublimation pressure [kPa]
313.4 K	24.95 ± 0.05
315.76 K	27.43 ± 0.05
318.05 K	29.95 ± 0.05
320.11 K	32.46 ± 0.05
322.06 K	34.9 ± 0.06
323.92 K	37.43 ± 0.06
325.66 K	39.94 ± 0.06
327.32 K	42.42 ± 0.07
328.9 K	44.91 ± 0.07
330.44 K	47.45 ± 0.07
331.94 K	49.92 ± 0.07
333.33 K	52.43 ± 0.08
334.6 K	54.76 ± 0.08
335.99 K	57.44 ± 0.08
337.31 K	59.98 ± 0.08
338.5 K	62.44 ± 0.09
339.65 K	64.86 ± 0.09
340.81 K	67.47 ± 0.09
341.92 K	69.94 ± 0.1
342.99 K	72.45 ± 0.1
344.05 K	74.96 ± 0.1
344.09 K	75.07 ± 0.1
345.11 K	77.54 ± 0.1
346.07 K	79.92 ± 0.11
347.06 K	82.52 ± 0.11
348.01 K	85.03 ± 0.11
348.86 K	87.27 ± 0.11
349.84 K	89.99 ± 0.12
350.73 K	92.48 ± 0.12
351.55 K	94.84 ± 0.12
353.73 K	101.33 ± 0.12

C1=CCCCC1 [cyclohexene]
Conditions	vapor or sublimation pressure [kPa]
315.56 K	24.94 ± 0.05
318.01 K	27.43 ± 0.05
320.26 K	29.98 ± 0.05
322.34 K	32.47 ± 0.06
324.31 K	34.95 ± 0.06
326.23 K	37.52 ± 0.06
327.96 K	39.98 ± 0.07
329.61 K	42.45 ± 0.07
331.23 K	45.01 ± 0.07
332.73 K	47.48 ± 0.07
334.22 K	50.02 ± 0.08
335.62 K	52.51 ± 0.08
336.98 K	55.02 ± 0.08
338.27 K	57.52 ± 0.09
339.52 K	59.98 ± 0.09
340.73 K	62.46 ± 0.09
341.94 K	65.02 ± 0.1
343.07 K	67.51 ± 0.1
344.16 K	69.97 ± 0.1
345.27 K	72.51 ± 0.1
346.3 K	74.96 ± 0.11
347.33 K	77.48 ± 0.11
348.35 K	80.02 ± 0.11
349.31 K	82.52 ± 0.11
350.26 K	84.99 ± 0.12
351.18 K	87.45 ± 0.12
352.09 K	89.96 ± 0.12
352.97 K	92.46 ± 0.13
353.85 K	95.01 ± 0.13
354.71 K	97.52 ± 0.13
355.97 K	101.33 ± 0.13

C=CCCCC [hex-1-ene]
Conditions	vapor or sublimation pressure [kPa]
298.07 K	24.93 ± 0.06
300.32 K	27.41 ± 0.06
302.55 K	30.08 ± 0.06
304.54 K	32.46 ± 0.06
306.31 K	34.84 ± 0.07
308.2 K	37.48 ± 0.07
309.84 K	39.96 ± 0.08
311.51 K	42.53 ± 0.08
312.98 K	44.96 ± 0.08
314.38 K	47.42 ± 0.09
315.79 K	49.92 ± 0.09
317.17 K	52.53 ± 0.1
318.43 K	54.98 ± 0.1
319.62 K	57.39 ± 0.1
320.84 K	59.94 ± 0.11
322.02 K	62.51 ± 0.11
323.16 K	64.97 ± 0.11
324.21 K	67.45 ± 0.12
325.25 K	69.88 ± 0.12
326.29 K	72.44 ± 0.13
327.32 K	75.04 ± 0.13
328.25 K	77.45 ± 0.13
329.21 K	79.98 ± 0.14
330.11 K	82.42 ± 0.14
331.01 K	84.93 ± 0.14
331.86 K	87.33 ± 0.15
332.74 K	89.92 ± 0.15
333.62 K	92.54 ± 0.15
334.38 K	94.82 ± 0.16
335.24 K	97.45 ± 0.16
336.48 K	101.3 ± 0.16

CCCCCC [hexane]
Conditions	vapor or sublimation pressure [kPa]
303.16 K	25.04 ± 0.05
305.43 K	27.5 ± 0.05
307.43 K	29.95 ± 0.06
309.54 K	32.44 ± 0.06
311.47 K	35.07 ± 0.06
313.25 K	37.51 ± 0.07
314.84 K	39.98 ± 0.07
316.52 K	42.44 ± 0.07
317.92 K	45.02 ± 0.07
319.49 K	47.45 ± 0.08
320.76 K	50.01 ± 0.08
322.26 K	52.52 ± 0.08
323.37 K	55.03 ± 0.09
324.59 K	57.32 ± 0.09
325.89 K	60.07 ± 0.1
326.95 K	62.46 ± 0.09
328.09 K	64.77 ± 0.09
329.19 K	67.22 ± 0.1
330.16 K	69.64 ± 0.1
331.45 K	72.45 ± 0.11
332.28 K	74.82 ± 0.11
333.48 K	77.48 ± 0.11
334.39 K	79.84 ± 0.11
335.33 K	82.31 ± 0.12
336.26 K	84.88 ± 0.12
337.14 K	87.26 ± 0.12
338.02 K	89.85 ± 0.13
338.91 K	92.35 ± 0.13
339.73 K	94.85 ± 0.13
340.44 K	97.02 ± 0.14
341.79 K	101.32 ± 0.14

— the NIST ThermoML archive (doi:10.1016/j.fluid.2008.12.007)
